Blank lines part the entries; values can stand above or below the compound they belong to.
How the values were obtained:
[1] = tested on: GABAA and GABAB receptors; assay: Light-induced IPSCs in rdLS neurons after stimulation of CRH+ fibers from ILA expressing Channelrhodopsin; type: cell-based, mice; settings: 2µM SR 95531 and 1µM CGP 55845 applied together; neurons held at +10 mV
Description: The inventors prepared coronal brain slices from 8- to 12-week-old C57BL6/J mice. […] Brains were cut into 400 µm slices with a vibratome (VT1200S, Leica) in the same ice-cold dissection solution. Slices were then transferred to an incubation chamber containing the same ACSF solution. The chamber was kept at 34°C for 30 min and then at room temperature for at least 1 h before recording. All experiments were performed at room temperature. Slices were mounted in the recording chamber under a microscope. Recordings were acquired using the Multiclamp 700A amplifier (Molecular Device), data acquisition interface ITC-18 (Instrutech) and the Axograph software. The inventors targeted CA2 PNs based somatic location and size in both deep and superficial layer. […] The liquid junction potential was 1.2 mV and was left uncorrected. Inhibitory currents were recorded in voltage-clamp configuration at +10 mV. […] LS neurons from WT mice were also recorded. […] The inventors used the Axograph software for data acquisition, and Excel (Microsoft) and PRISM (Graphpad) for data analysis.

CRHR1 [2] = assay: Social novelty preference test after cannula infusion in rdLS; type: in vivo, C57BL/6J wild-type mice; settings: 2 µg of antalarmin in 0.6 µL of DMSO infused in rdLS
Description: The mouse scalp was removed and scored before a hole was drilled (AP +0.9, ML ±0). A cannula guide extending 2.4 mm below the pedestal (Plastics One #C315G 2-G11-SPC) was lowered slowly and kept in place using superglue. The skull was then covered with dental cement (GC FujiCEM 2) and dummy cannulas (Plastics One #C315DC-SPC) were inserted into the guides. The mice were returned to their home cages and left to recover for at least 1 week. For rdLS infusion, mice were placed under light isoflurane anesthesia (2%) and the dummy cannula was removed. A cannula (Plastics One #C315I-SPC) projecting 2.5 mm from the tip of the cannula guide was mounted. […]
Social novelty preference test. […] Using automatic tracking of the test mice (ANY-Maze, Stoelting), the inventors quantified the time the test mice spent in the immediate area surrounding each cup - and therefore, interacting with each stimulus mice - during learning and recall. Using the interaction time from the recall trial, the inventors calculated a discrimination index for social novelty preference as the following: D! = (time with novel - time with familiar) / total interaction time. […] The inventors also calculated the total time spent interacting with stimulus mice during each trial in order to verify that the sociability drive was not affected. […]

CRHR1 [3] = molecular target: T1, CRHR1 (Mus musculus, UniProt P35347); assay: Inhibitory events in rdLS neurons before and after tetanic light stimulation of ILA CRH fibers, with or without antagonist; type: cell-based, mice; settings: 300 nM antalarmin in the bath
T1 sequence (P35347 24-415): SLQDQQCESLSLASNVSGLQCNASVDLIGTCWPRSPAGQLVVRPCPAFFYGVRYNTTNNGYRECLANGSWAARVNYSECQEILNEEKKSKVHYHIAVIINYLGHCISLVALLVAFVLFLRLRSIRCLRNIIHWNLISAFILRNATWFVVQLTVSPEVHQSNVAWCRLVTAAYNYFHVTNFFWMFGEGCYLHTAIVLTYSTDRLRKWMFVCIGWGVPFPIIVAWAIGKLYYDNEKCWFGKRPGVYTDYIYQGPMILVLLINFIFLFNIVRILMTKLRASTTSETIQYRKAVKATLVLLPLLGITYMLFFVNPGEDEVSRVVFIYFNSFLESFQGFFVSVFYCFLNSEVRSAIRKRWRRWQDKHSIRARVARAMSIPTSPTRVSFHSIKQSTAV
Description: The inventors prepared coronal brain slices from 8- to 12-week-old C57BL6/J mice. Animals were killed under isoflurane anesthesia by perfusion into the right ventricle of ice-cold solution containing the following (in mM): 125 NaCl, 2.5 KCI, 22.5 glucose, 25 NaHCOs, 1.25 NaH2PO4, 3 Na Pyruvate, 1 Ascorbic acid, 2 CaCl2 and 1 MgCl2). ACSF was saturated with 95% O2 and 5% CO2, pH 7.4. Brains were cut into 400 µm slices with a vibratome (VT1200S, Leica) in the same ice-cold dissection solution. Slices were then transferred to an incubation chamber containing the same ACSF solution. The chamber was kept at 34°C for 30 min and then at room temperature for at least 1 h before recording. All experiments were performed at room temperature. Slices were mounted in the recording chamber under a microscope. Recordings were acquired using the Multiclamp 700A amplifier (Molecular Device), data acquisition interface ITC-18 (Instrutech) and the Axograph software. […] Inhibitory currents were recorded in voltage-clamp configuration at +10 mV. […] LS neurons from WT mice were also recorded. […]
The inventors expressed channel rhodopsin in ILA^CRH neurons and prepared rdLS slices (Fig. 15F). The inventors obtained whole-cell recordings of rdLS neurons and recorded spontaneous inhibitory events (sIPSC) before and after applying a tetanic light stimulation. […]

CRHR1 [4] = assay: Whole-cell patch-clamp recordings from rdLS CRHR1 neurons in acute LS slices; type: cell-based; settings: 300 nM stressin-1, bath application; CRHR1-Cre;Ai9 mice; neurons clamped at -60 mV
CRHR1 [5] = assay: Spontaneous IPSC recording from LS cells in acute slices before and after agonist application; type: cell-based, mice; settings: 300 nM
Description: The inventors prepared coronal brain slices from 8- to 12-week-old C57BL6/J mice. Animals were killed under isoflurane anesthesia by perfusion into the right ventricle of ice-cold solution containing the following (in mM): 125 NaCl, 2.5 KCI, 22.5 glucose, 25 NaHCOs, 1.25 NaH2PO4, 3 Na Pyruvate, 1 Ascorbic acid, 2 CaCl2 and 1 MgCl2). ACSF was saturated with 95% O2 and 5% CO2, pH 7.4. Brains were cut into 400 µm slices with a vibratome (VT1200S, Leica) in the same ice-cold dissection solution. Slices were then transferred to an incubation chamber containing the same ACSF solution. The chamber was kept at 34°C for 30 min and then at room temperature for at least 1 h before recording. All experiments were performed at room temperature. Slices were mounted in the recording chamber under a microscope. Recordings were acquired using the Multiclamp 700A amplifier (Molecular Device), data acquisition interface ITC-18 (Instrutech) and the Axograph software. […] Whole-cell recordings were obtained from LS neurons in voltage-clamp mode at -70 mV patch pipette (3-5 MΩ) containing the following (in mM): 135 Cs-gluconate, 5 KCI, 0.2 EGTA-Na, 10 HEPES, 2 NaCl, 5 ATP, 0.4 GTP, 10 phosphocreatine, and 5 µM biocytin, pH 7.2 (280-290 mOsm). The liquid junction potential was 1.2 mV and was left uncorrected. Inhibitory currents were recorded in voltage-clamp configuration at +10 mV. The inventors recorded rdLS neurons in septal slices from CRH-Cre mice expressing channelrhodopsin and applied 2 µM SR 95531 (Tocris, # 1262) and 1 µM CGP 55845 (Tocris, #1248) to block GABAA and GABAB receptors, respectively while monitoring the light induced IPSCs in rdLS neurons. The inventors also applied a tetanic light stimulation (3 times 100 pulses of 1 ms at 100 Hz) with or without 300 nM antalarmin (Tocris, #2778) present in the bath. LS neurons from WT mice were also recorded. After 10 min of stable baseline recording, stressin-1 (300 nM, Tocris # 1608) was applied following a 1:1000 dilution from stock solution into the ACSF. The inventors used the Axograph software for data acquisition, and Excel (Microsoft) and PRISM (Graphpad) for data analysis.
The inventors prepared acute LS slices from WT mice and recorded spontaneous inhibitory post-synaptic currents (IPSCs) from rdLS cells in whole-cell configuration before applying the CRHR1 agonist stressin-1 (300 nM, Fig. 15A-B). Stressin-1 application for 15 min decreased the frequency and integrated charge of spontaneous IPSCs (Fig. 15B-C and E). […] This effect was not seen when rLS neurons were recorded for 15 min without application of the agonist (Fig. 16 A1-A5).

[6] = application for 15 min, rdLS cells, WT mice

light-induced IPSCs [1]: abolished
Compound: C[C@H](NC[C@H](O)CP(=O)(O)Cc1ccccc1)c1ccc(Cl)c(Cl)c1 [CGP 55845]

Compound: COc1ccc(-c2ccc(=N)n(CCCC(=O)O)n2)cc1 [SR 95531]
light-induced IPSCs [1]: abolished

decrease in inhibition (sIPSC frequency, amplitude, charge; elicited IPSC) following light stimulation (CRHR1 [3]): blocked the disinhibition
Compound: CCCCN(CC)c1nc(C)nc2c1c(C)c(C)n2-c1c(C)cc(C)cc1C [antalarmin]
preference for the novel mouse (CRHR1 [2]; recall trial): showed no novelty preference | Total exploration time during learning or recall (CRHR1 [2]; vs. DMSO): not different between groups

Compound: stressin-1
current in rdLSCRHR1 neurons (CRHR1 [4]): induced an inward current | IPSCs of vLS neurons (CRHR1 [5]; 15 min, vLS neurons in posterior LS slices): had no effect | IPSC amplitude (CRHR1 [5]; [6]): trend toward a decrease | frequency of spontaneous IPSCs (CRHR1 [5]; [6]): decreased | integrated charge of spontaneous IPSCs (CRHR1 [5]; [6]): decreased

Reference: EP4516309A1, “CRHR1 AGONISTS FOR USE IN THE TREATMENT OF SOCIAL ANXIETY DISORDERS” (Consejo Superior de Investigaciones Cientificas, priority 2023, dated 2025)
